According to publication PMC4604765, “Eye drop delivery of pigment epithelium-derived factor-34 promotes retinal ganglion cell neuroprotection and axon regeneration” (Molecular and Cellular Neurosciences, 2015):
No end group written: not given here.

Columns and labels:
[1] = Stability in culture media and on long-term storage; settings: no data shown
[2] = test system: βIII-tubulin+ retinal neurons
Source text: (§1) For all in vitro experiments, adult 6–8-week-old female Sprague–Dawley rats weighing 170–220 g were used. Culture experiments included retinal cells treated with: (1), Neurobasal-A (NBA) alone (Control); and equimolar concentrations of (2), 2.16; (3) 5.4; (4), 10.8 and (5), 21.6 pM PEDF-34/-44; and (6), ciliary neurotrophic factor (CNTF: Peprotech, London, UK), as a positive control at an optimal neuroprotective/axogenic concentration of 440.5 pM, established by us previously ([Ahmed et al., 2009; Douglas et al., 2009]). […] All experiments were performed in triplicate and repeated on three independent occasions.
Mixed adult rat retinal cultures containing enriched populations of retinal neurons, including RGCs, were prepared from 6–8-week-old adult female Sprague–Dawley rats, as described previously ([Ahmed et al., 2006b, 2009, 2010; Douglas et al., 2009; Vigneswara et al., 2013]). Briefly, retinal cells were dissociated using a Papain dissociation kit according to the manufacturer's instructions (Worthington Biochemicals, Lakewood, NJ, USA). […]
The mean number of βIII-tubulin^+ neurons surviving, with neurites and the mean neurite length were quantified as described by us previously ([Vigneswara et al., 2013, 2014]). Briefly, chamber slides were anonymised by a second investigator and βIII-tubulin^+ neuronal soma and neurites quantified in 9 quadrants/well using Axiovision software (Version 4.8; Zeiss) and ImagePro (Version 6.3; Media Cybernetics, Bethesda, MD, USA). Of the 125,000 cells/well plated, the total numbers of neurons in each experiment were determined by βIII-tubulin^+ immunocytochemistry after allowing 30 min for cells to adhere to glass culture slides. […] Neurite outgrowth from at least 180 neurons/condition from the 9 wells was measured, except in control (NBA) cultures, in which a total of 108 neurons were measured.

[3] = test system: retinal ganglion cells (RGCs); assay: RGC survival after optic nerve crush (FluroGold backfilling, retinal wholemounts); format: in vivo, rat; settings: weekly intravitreal injection, 2.68 nM versus 1.88 nM, 21 days after ONC
Description: In a separate set of experiments comprising the same treatment groups, 6 rats/treatment (i.e. 12 eyes/optic nerves/treatment) were used to evaluate RGC axon regeneration by immunostaining with growth-associated protein-43 (GAP-43) in the optic nerve.
In further experiments, 12 rats (24 eyes/optic nerves)/treatment received 1.88 nM PEDF-34 eye drops daily. Six rats (12 eyes)/treatment were used to assess RGC survival at 21 days using FG backfilling, whilst the remaining 6 rats (12 eyes/optic nerves)/treatment were used to evaluate RGC axon regeneration at 21 days by GAP-43 immunohistochemistry. […]
Nineteen days after ONC, FG (Cambridge Biosciences, Cambridge, UK) was injected into the optic nerve, between the lamina cribrosa and the ONC site ([Vigneswara et al., 2013, 2014]). […] The identity of individual retinae was anonymised by a second investigator before image capture using a Zeiss epifluorescent microscope and the number of FG^+ RGCs counted in ImagePro Version 6.0 (Media Cybernetics) from captured images of 12 rectangular areas, 3 from each quadrant, placed at radial distances from the centre of the optic disc of the inner (1/6 eccentricity), midperiphery (1/2 eccentricity) and outer retina (5/6 eccentricity). The mean densities of FG^+ RGCs/mm^2 for each retina were determined.

[4] = test system: βIII-tubulin+ retinal neurons; assay: Neurite outgrowth in mixed adult rat retinal cultures (βIII-tubulin immunocytochemistry); format: cell-based
Source text: as §1
Mixed adult rat retinal cultures containing enriched populations of retinal neurons, including RGCs, were prepared from 6–8-week-old adult female Sprague–Dawley rats, as described previously ([Ahmed et al., 2006b, 2009, 2010; Douglas et al., 2009; Vigneswara et al., 2013]). Briefly, retinal cells were dissociated using a Papain dissociation kit according to the manufacturer's instructions (Worthington Biochemicals, Lakewood, NJ, USA). Retinal cells were plated at a density of 125 × 10^3/well in poly-D-lysine and laminin pre-coated 8-well chamber slides and cultured in NBA supplemented with B27 supplement (all from Invitrogen, Paisley, UK), with appropriate treatments for 4 days at 37 °C and 5% CO2 before fixation in 4% paraformaldehyde diluted in PBS for immunocytochemistry, as described previously ([Vigneswara et al., 2013, 2014]).
Fixed cells were washed in several changes of PBS before permeabilisation and blocking of non-specific antibody sites with PBS containing 3% bovine serum albumin (BSA) and 0.1% Triton X-100 (both from Sigma, Poole, UK). Cells were then incubated with monoclonal anti-βIII-tubulin antibody (1:200 dilution; Sigma) for 1 h at room temperature (RT) to detect retinal neurons and their neurites. Cells were then washed in several changes of PBS and incubated with Alexa 488 anti-mouse IgG (1:400 dilution; Invitrogen) for 1 h at RT. After washing in several changes of PBS and mounting in Vectamount containing DAPI (Vector Laboratories, Peterborough, UK), cells were then viewed using a Zeiss epi-fluorescent microscope equipped with an AxioCam HRc and Axiovision Image capture software (all from Zeiss, Hertfordshire, UK). Immunocytochemistry included controls with primary antibody omitted, to set background levels of nonspecific staining (not shown) before image capture.
The mean number of βIII-tubulin^+ neurons surviving, with neurites and the mean neurite length were quantified as described by us previously ([Vigneswara et al., 2013, 2014]). Briefly, chamber slides were anonymised by a second investigator and βIII-tubulin^+ neuronal soma and neurites quantified in 9 quadrants/well using Axiovision software (Version 4.8; Zeiss) and ImagePro (Version 6.3; Media Cybernetics, Bethesda, MD, USA). Of the 125,000 cells/well plated, the total numbers of neurons in each experiment were determined by βIII-tubulin^+ immunocytochemistry after allowing 30 min for cells to adhere to glass culture slides. This determines the number of neurons plated/well and is used in each experiment to work out the proportion of surviving βIII-tubulin^+ neurons. Neurite outgrowth from at least 180 neurons/condition from the 9 wells was measured, except in control (NBA) cultures, in which a total of 108 neurons were measured.

[5] = PEDF-34 versus equimolar PEDF-44, retinal cultures
[6] = 5.4 pM (peak), 4 days in culture

DPFFKVPVNKLAAAVSNFGYDLYRVRSSTSPTTN [PEDF-34]
time to detection in vitreous body: < 30 min
stability in culture media ([1]; PEDF-34 compared with PEDF-44): equally stable
neurotrophic properties after long-term storage [1]: retained their neurotrophic properties
fold increase in βIII-tubulin+ neuron numbers compared to untreated cultures ([2]; 5.4 pM, 4 days in culture): 4.5 fold
more neuroprotective than PEDF-44 in vitro [2, 5]: 43%
RGC survival on increasing the dose [3]: did not improve
mean neurite length [4, 6]: 211 ± 23 μm
mean proportion of βIII-tubulin+ neurons with neurites [4, 6]: 21 ± 2%
fold longer neurites than in CNTF cultures ([4]; PEDF-34 versus CNTF (440.5 pM)): 2.2 fold
fold more βIII-tubulin+ neurons with neurites than in CNTF cultures ([4]; PEDF-34 versus CNTF (440.5 pM)): 10.5 fold
fold longer neurites than in PEDF-44 cultures ([4]; PEDF-34 versus PEDF-44): 1.7 fold
fold more βIII-tubulin+ neurons with neurites than in PEDF-44 cultures ([4]; PEDF-34 versus PEDF-44): 2.3 fold
more neuritogenic than PEDF-44 in vitro [4, 5]: 52%
fold longer neurites than in untreated cultures ([4]; PEDF-34 versus untreated): 6.3 fold
fold more βIII-tubulin+ neurons with neurites than in untreated cultures ([4]; PEDF-34 versus untreated): 21 fold
retinal neuron/RGC neuritogenesis/axogenesis compared to untreated controls ([4]; statement in discussion): Five-fold more
